The results in this text go back to US8268836B2, “Compound useful as a c-Met inhibitor” (Eli Lilly and Company, priority 2010, dated 2012).

One may read the IC50 as the concentration that gives 50% inhibition.

For one experiment, the target named is cMet enzyme (Homo sapiens, UniProt P08581). Briefly: cMet Homogeneous Time Resolved Fluorescence (HTRF) in vitro assay. As to conditions: relative IC50; read-out: c-Met IC50 (HTRF). In kind it is biochemical. An excerpt: This assay is based on HTRF technology and it is used to detect the phosphorylation of biotin labeled tyrosine peptide by cMet enzyme. After the reaction is completed, XL665 labeled streptavidin is used to recognize the biotin unit and a Europium (Eu3+) labeled anti-phospho-tyrosine antibody is used to recognize the phosphorylated tyrosine. The detection process relies on the transfer of energy between the excited Eu3+ and the XL665 labeled streptavidin. The aim of this protocol is to calculate the ability of test compounds to inhibit the phosphorylation of the product of this reaction and calculate their relative IC50 values.
A reference compound, if desired, may be prepared as a 1 mM stock solution in 100% DMSO and test compounds are prepared as 10 mM stock solutions in 100% DMSO. 1 mM reference compound and 10 mM test compounds are pre-diluted to 8 μM and 80 μM 10% DMSO solutions in a 96-well dilution plate. Compounds are serially diluted (1:3) using Tecan Freedom EVO 200 and 10-point dilution curves are generated for each of the compounds tested. 10 μL of serially diluted compounds are transferred to a 96-well assay plate using Temo (Tecan). […] The assay plate is incubated at RT for 60 min before reading the fluorescence signals at 620 nm emission and 665 nm […] in a Victor3 instrument (PerkinElmer Corporation). […]
In general terms: In TR-FRET formats the signal depends on donor and acceptor labels being close together.

The target of experiment [1] is T1, Met (pY1349) in NCl-H460 cells (Homo sapiens, UniProt P08581).
T1 construct: host or cells: NCI-H460
Put plainly: HGF stimulated Met (pY1349) NCI-H460 cell-based ELISA. Particulars: HGF 100 ng/mL stimulated NCI-H460 cells; read-out: relative IC50, H460 assay (c-Met phosphorylation). As to the method:
NCl—H460 cells (purchased from ATCC) are cultured in RPMI 1640 media (Invitrogen) supplemented with 10% Fetal Bovine Serum (FBS) and plated (prior to becoming 70% confluent) in 96-well flat-bottom plates at a density of 20,000 cells per well in 80 μL volume. The cells are then incubated overnight in a cell culture incubator (5% CO2, 95% Relative Humidity (RH) and 37° C.) and allowed to attach to the plate. The following morning the cells are washed with 2 volumes of a Reduced Serum Media (RSM, RPMI 1640 media supplemented with 0.5% FBS). After removal of the last wash, 80 μL of RSM is added to each well of the cell plates. The cell plates are incubated for 2.5 h in a cell culture incubator, and then dosed with compounds. Compound inhibitors are first solubilized at 10 mM in 100% DMSO and then diluted to 100 μM with 2% DMSO RSM. […] After 1 h capture (at RT) the MSD® plate wells are washed with 1× Tris Wash Buffer, and then 150 μL of 1× Read Buffer T (with surfactant, MSD®) is added. Immediately after the addition of the Read Buffer, the plates are analyzed with a SECTOR 6000 MSD® Imager plate reader. Relative IC50 values are determined using MSD activity units by calculating percent inhibition with respect to on-plate “MIN” and “MAX” controls and then fitting the percent inhibition values and ten-point dose response data to a four-parameter logistic equation.

Counter-ions that a name gives are not always drawn.

T1 sequence (P08581 25-1390): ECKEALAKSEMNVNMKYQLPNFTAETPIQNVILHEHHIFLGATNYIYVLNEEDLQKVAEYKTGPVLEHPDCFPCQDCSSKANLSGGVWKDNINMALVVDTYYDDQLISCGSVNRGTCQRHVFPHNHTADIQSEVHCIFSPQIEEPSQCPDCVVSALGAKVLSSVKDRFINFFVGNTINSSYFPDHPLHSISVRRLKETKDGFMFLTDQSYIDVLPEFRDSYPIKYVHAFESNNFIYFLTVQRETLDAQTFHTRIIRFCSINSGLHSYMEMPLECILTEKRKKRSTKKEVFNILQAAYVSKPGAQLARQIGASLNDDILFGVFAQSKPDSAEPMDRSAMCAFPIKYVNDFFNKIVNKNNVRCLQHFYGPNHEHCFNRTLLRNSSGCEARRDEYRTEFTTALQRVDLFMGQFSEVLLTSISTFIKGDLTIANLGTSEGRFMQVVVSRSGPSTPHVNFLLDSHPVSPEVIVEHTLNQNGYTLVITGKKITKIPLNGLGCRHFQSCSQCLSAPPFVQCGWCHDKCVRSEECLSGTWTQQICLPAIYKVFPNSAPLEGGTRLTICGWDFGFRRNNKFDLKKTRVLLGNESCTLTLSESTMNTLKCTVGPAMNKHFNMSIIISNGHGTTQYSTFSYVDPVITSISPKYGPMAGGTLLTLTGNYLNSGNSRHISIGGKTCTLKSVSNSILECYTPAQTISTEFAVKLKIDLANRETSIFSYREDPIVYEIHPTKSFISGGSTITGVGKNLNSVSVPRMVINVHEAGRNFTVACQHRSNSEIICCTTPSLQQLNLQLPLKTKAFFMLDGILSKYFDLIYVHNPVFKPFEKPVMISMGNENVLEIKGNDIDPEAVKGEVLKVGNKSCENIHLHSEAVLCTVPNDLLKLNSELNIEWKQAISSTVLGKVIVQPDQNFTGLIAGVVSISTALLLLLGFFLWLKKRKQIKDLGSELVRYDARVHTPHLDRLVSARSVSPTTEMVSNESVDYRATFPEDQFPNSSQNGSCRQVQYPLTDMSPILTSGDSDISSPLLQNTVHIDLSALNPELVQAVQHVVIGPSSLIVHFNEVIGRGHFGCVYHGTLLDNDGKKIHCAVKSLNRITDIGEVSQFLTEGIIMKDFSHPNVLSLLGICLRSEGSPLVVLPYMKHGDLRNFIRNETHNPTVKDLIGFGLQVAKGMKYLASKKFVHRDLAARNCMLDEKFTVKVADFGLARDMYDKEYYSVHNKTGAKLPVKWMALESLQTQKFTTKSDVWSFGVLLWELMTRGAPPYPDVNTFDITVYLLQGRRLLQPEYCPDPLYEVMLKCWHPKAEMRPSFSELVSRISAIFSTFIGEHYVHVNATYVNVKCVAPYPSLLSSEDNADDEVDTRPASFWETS
cMet enzyme, sequence (P08581 25-1390): as above

For the compound `Cn1cc(-c2ccc3nnc(Sc4ccc5nn(C)cc5c4)n3n2)cn1` [mesylate salt form of example 1], the IC50 at cMet enzyme turned out to be 25 nM; in experiment [1], 38 nM.
